Values quoted from earlier work in US20210283219A1, “INHIBITION OF ALTERNATIVE COMPLEMENT PATHWAY FOR TREATMENT OF RETINAL ISCHEMIC INJURY AND GLAUCOMA” (Massachusetts Eye and Ear Infirmary, priority 2017, published 2021).

Biological target: complement factor B (Homo sapiens, UniProt P00751)
Sequence (P00751 26-764, species assumed): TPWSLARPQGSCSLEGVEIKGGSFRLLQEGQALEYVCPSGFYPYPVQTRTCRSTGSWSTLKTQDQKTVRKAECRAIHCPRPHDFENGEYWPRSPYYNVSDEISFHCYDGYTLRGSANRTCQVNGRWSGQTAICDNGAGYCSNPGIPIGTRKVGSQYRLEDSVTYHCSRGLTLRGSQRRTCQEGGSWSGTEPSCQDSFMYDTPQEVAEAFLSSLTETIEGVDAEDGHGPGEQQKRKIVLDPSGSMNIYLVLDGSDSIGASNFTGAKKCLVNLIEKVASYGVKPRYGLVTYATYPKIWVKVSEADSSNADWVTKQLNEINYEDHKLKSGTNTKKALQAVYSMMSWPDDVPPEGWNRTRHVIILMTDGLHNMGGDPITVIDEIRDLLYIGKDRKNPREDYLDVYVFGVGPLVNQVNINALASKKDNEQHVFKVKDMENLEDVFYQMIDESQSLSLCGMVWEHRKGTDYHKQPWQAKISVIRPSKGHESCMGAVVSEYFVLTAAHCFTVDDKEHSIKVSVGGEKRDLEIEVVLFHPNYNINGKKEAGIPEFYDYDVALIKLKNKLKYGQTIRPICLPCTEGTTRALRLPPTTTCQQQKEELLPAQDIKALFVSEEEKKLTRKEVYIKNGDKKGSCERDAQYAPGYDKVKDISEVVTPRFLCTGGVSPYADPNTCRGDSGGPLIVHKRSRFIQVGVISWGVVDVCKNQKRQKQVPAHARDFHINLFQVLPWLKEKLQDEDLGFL

(2S)-2-[[(2S)-2 [[(2S)-2-[[(2S)-[[(2S)-2-[[(2S)-2-acetamido-5-(diaminomethylideneamino)pentanoyl]amino]-4-methylpentanoyl]amino]-4,4-dimethylpentanoyl]amino]-4-methylpentanoyl]amino]propanoyl]amino]-5-(diaminomethylideneamino)pentanoic acid [Compound 51]
inhibition of complement factor B: potently inhibits
